# Like-named read-outs stand apart in the source and are kept apart here.
# Test system: Escherichia coli
# Assay: Minimal Inhibitory Concentration (MIC), two-fold dilution series in 96 well microplate
# Assay type: cell-based
# Settings: for MIC (QA), used alone: first biocide used alone
# Excerpt: While there are various methods known to individuals skilled in the art for measuring levels of antimicrobial activity, in the following examples the endpoint used is known as the Minimal Inhibitory Concentration, or MIC. This is the lowest concentration of a substance or substances which can achieve complete inhibition of growth.
# In order to determine the Minimal Inhibitory Concentration, a two-fold dilution series of the biocide is constructed with the dilutions being made in growth media. The dilutions are made in a 96 well microplate such that each well has a final volume of 280 μl of media and biocide. The first well has, for example, a concentration of 1000 ppm biocide, the second 500 ppm, the third 250 ppm, and so forth, with the 12th and final well in the row having no biocide at all and serving as a positive growth control. After the dilution series is constructed the wells receive an inoculum of microbe suspended in growth media such that the final concentration of microbes in the well is ˜5×10^5 cfu/ml. In these examples the test microbe used is Escherichia coli. The cultures are incubated at an appropriate temperature for 18-24 hours, and the wells scored as positive or negative for growth based on a visual examination for turbid wells.
# [1] = Escherichia coli, second biocide used alone, complete inhibition of growth, 18-24 hours, read-out: MIC (QB), used alone
# [2] = second biocide used alone, complete inhibition of growth, 18-24 hours
# [3] = Escherichia coli, used alone, Table 26
# [4] = complete inhibition of growth, 18-24 hours
compound,measurement,setting,value
"CC1(C)C(=O)N(Cl)C(=O)N1Br [BCDMH, 1-bromo-3-chloro-5,5-dimethylhydantoin]",MIC,[1],61 µg/mL
"O=[N+]([O-])C(Br)(CO)CO [BNPD, 2-bromo-2-nitropropane-1,3,-diol]","MIC (QB), used alone",[2],24 ppm
"N#CC(Br)(Br)C(N)=O [DBNPA, 2,2-dibromo-3-nitrilopropionamide]",MIC,[1],11 µg/mL
"CNC(=O)N(C)Cl [DMCU, dimethyl monochlorourea]","DMCU MIC (QA), used alone",[3],10 ppm
same,"DMCU MIC (QA), used alone","Escherichia coli, used alone, Table 27",10 ppm
same,"DMCU MIC (QA), used alone","Escherichia coli, used alone, Table 28",10 ppm
same,"MIC (QA), used alone",[4],10 ppm
same,"MIC (QB), used alone",[2],10 ppm
"O=CCCCC=O [GLUT, glutaraldehyde]",MIC,[1],45 µg/mL
same,MIC,"Escherichia coli, used alone, Table 28, read-out: GLUT MIC (QB), used alone",45 µg/mL
"OO [H2O2, hydrogen peroxide]","MIC (QB), used alone",[2],1000 ppm
"N#CSCSC#N [MBT, methylene bisthiocyanate]",MIC,"Escherichia coli, read-out: MIC (QB), used alone",8 µg/mL
"NCl [MCA, monochloramine]","MIC (QB), used alone",[2],47 ppm
"NC(=O)NCl [MCU, monochlorourea]","MIC (QA), used alone",[4],100 ppm
same,"MIC (QB), used alone",[2],100 ppm
"N-alkyl (C12-C16)-N,N-dimethyl benzylalkonium chloride [QAC]","QAC MIC (QB), used alone",[3],27 ppm
same,"MIC (QB), used alone",[2],27 ppm
methyl monochlorourea [MMCU],"MIC (QB), used alone",[2],16 ppm

# — patent US20150132405A1, “SYNERGISTIC COMPOSITIONS OF MONOCHLOROUREA AND MODIFIED MONOCHLOROUREAS” (HERCULES INCORPORATED, priority 2013, published 2015)
